Read-outs that look alike come from different tables or passages of the source.
Experiments:
Caco-2 cells [1] = experiment: MTT cytotoxicity assay in undifferentiated Caco-2 cells; format: cell-based, human
Protocol: The human Caco-2 cell line (TC7 clone) was kindly provided by Dr. Edith Brot-Laroche (Université Pierre et Marie Curie-Paris 6, UMR S 872, Les Cordeliers, France). Human epithelial fibroblast cells (NHDF-Ad, Lonza®®, Porriño, Spain) were kindly provided by Dr. Gracia Mendoza (Aragon Health Research Institute, IIS Aragón, Spain). Caco-2 cells (passages 40–70) and fibroblasts (passages 10–30) were maintained in a humidified atmosphere of 5% CO2 at 37 °C and grown in medium following the method used by Quero et al.. The Caco-2 cells were sub-cultured in 25 cm^2 plastic flasks at a density of 1.2 × 10^4 cells/cm^2, while the fibroblasts were sub-cultured on 75 cm^2 plastic flasks at a density of 1 × 10^4 cells/cm^2. The culture medium was replaced every 2 days.
The gold complexes were diluted in dimethyl sulfoxide (DMSO) as a 10 mM stock solution, and then diluted in cell culture medium at the desired concentrations.
For the cytotoxicity screening assays, Caco-2 cells were seeded in 96-well plates at a density of 4 × 10^3 cells/well. The culture medium was replaced with medium containing the drug panel 24 h post-seeding, and the cells were incubated for 24, 48 and 72 h. […] In differentiated Caco-2 and fibroblasts, culture medium containing metal gold complexes was added 15 days post-seeding, and the cells were incubated for 72 h. The antiproliferative effect was measured using an MTT assay, as previously described by Mármol et al.. The absorbance at 540/620 nm was measured using a SPECTROstar Nano (BMG Labtech, Ortenberg, Germany). In order to determine the selectivity index (SI), the IC50 value of the differentiated Caco-2 cells was divided by IC50 value in undifferentiated Caco-2, obtaining the ratio of the normal/cancerous cells’ toxicity.

Caco-2 cells [2] = experiment: Apoptosis measurement, annexin V-FITC/PI flow cytometry; format: cell-based, human; details: complex 1 1.14 µM 48 h, complex 8 7.22 µM 72 h
Protocol: Caco-2 cells were seeded in 75 cm^2 flasks at a density of 1 × 10^4 cells/cm^2, then exposed to the drug panel for 48 or 72 h depending on the compound tested, and them stained with annexin V-FITC and sodium iodide propidio according to the manufacturer’s instructions. The cells were then transferred to flow cytometry tubes and washed twice with phosphate-buffered saline (PBS); they were then resuspended in 100 µL annexing V binding buffer (100 mM Hepes/NaOH pH 7.4, […], 2.5 mM CaCl2). In total, 5 µL annexin V-FITC and 5 µL propidium iodide (PI) were added to the tube. After 15 min of incubation at room temperature protected from light, 400 µL annexin binding buffer was added to each sample, and the signal intensity was analyzed within 1 h with Beckman Coulter Gallios (Brea, CA, USA). The data were analyzed with BD FACSDivaTM [59].

Caco-2 cells [3] = experiment: Mitochondrial membrane potential assay (DilC1); format: cell-based, human; details: complex 1 1.14 µM 48 h, complex 8 7.22 µM 72 h
Protocol: Caco-2 cells were seeded in 75 cm^2 flasks at a density of 1 × 10^4 cells/cm^2, and the 24-h post-seeding medium was replaced with medium containing the drug panel; it was then incubated for 48 or 72 h. The cells were then washed twice and resuspended in PBS at a concentration of 10^6 cells/mL before incubation with 5 µL of 10 µM 1,1′,3,3,3′-hexamethylindodicarbo-cyanine iodide (DilC1). After 15 min of incubation at 37 °C, 400 µL PBS was added, and the fluorescence was measured by flow cytometry at an excitation wavelength of 633 nm and an emission of 658 nm with a Beckman Coulter Gallios (Brea, CA, USA) equipped with a blue solid diode laser (488 nm) and a red solid diode laser (635 nm).

caspase-3 = experiment: Determination of active caspase 3 by flow cytometry; format: cell-based, human; details: Caco-2; complex 1 1.14 µM 48 h, complex 8 7.22 µM 72 h
Protocol: (§1) Caco-2 cells were seeded in a 75 cm^2 flask at a density of 1 × 10^4 cells/cm^2; 24 h later, they were exposed to the drug panel for 48 or 72 h. Then, the cells were collected and processed as previously described. Finally, 50 µL of every sample was incubated with 5 µL anti-active caspase-3 (BD Pharmigen, San Diego, CA, USA, Clone C92-605) and 5 µL p53 antibody (Miltenyi, Auburn, CA, USA, Clone REA609). The fluorescence was measured by flow cytometry using a Beckman Coulter Gallios (Brea, CA, USA) equipped with a blue solid diode laser (488 nm) and a red solid diode laser (635 nm). For the caspase-3 determination, the excitation wavelength was set at 488 nm and the emission was set at 525 nm; for the p53 analysis, the excitation was set at 635 nm and the emission was set at 660 nm.

p53 = experiment: Determination of p53 protein by flow cytometry; format: cell-based, human; details: Caco-2; complex 1 1.14 µM 48 h, complex 8 7.22 µM 72 h
Protocol: as §1

[4] = molecular target: T1, recombinant human carbonic anhydrase IX (Homo sapiens, UniProt Q16790); experiment: Carbonic anhydrase IX esterase activity assay (4-NPA); format: biochemical; details: 30 μM, 5 min incubation
T1 construct: purchased Sigma SRP6483
Protocol: The in vitro effect of metal complexes on the enzyme carbonic anhydrase IX was analyzed by monitoring conversion of 4-nitrophenyl acetate (4-NPA) to 4-nitrophenol. The tests were carried out in 96-well plates. Gold complexes (4 µL) were incubated with 4 µL recombinant human carbonic anhydrase IX (Sigma SRP6483, St Louis, MO, USA) (50 µg/mL) at 25 °C for 5 min. PBS at pH 7.35 (Sigma D1408, St Louis, MO, USA) was added to reach a final volume of 90 µL. The reaction was started by adding 10 µL 4-NPA (0.5 mM in methanol), and the absorbance at 405 nm was monitored every 30 s for 1 h using a SPECTROstar Nano (BMG Labtech, Ortenberg, Germany) multiplate reader. The results were expressed as a percentage of CA-IX activity with respect to the control. The potency of the inhibtion referred to the incubation in the presence of indisulam (E7070, N-(3-chloro-7-indolyl)-1,4-benzenedisulfonamide) (Sigma SML1225, St Louis, MO, USA), which is a specific inhibitor of carbonic anhydrase isoforms IX and XII.

[5] = 24 h incubation, read-out: IC50 24 h
[6] = 48 h incubation, read-out: IC50 48 h
[7] = 72 h incubation, read-out: IC50 72 h
[8] = treatment for 72 h, read-out: IC50

Compound | IC50 (Caco-2 cells [1]; [5]) [nM] | IC50 (Caco-2 cells [1]; [6]) [nM] | IC50 (Caco-2 cells [1]; [7]) [nM] | IC50 (Caco-2 cells [1]; [8]) [nM] | induction of apoptosis (annexin V/PI) (Caco-2 cells [2]) | mitochondrial depolarization (cells with disturbed MMP) (Caco-2 cells [3]) | percentage of cells with active caspase-3 (caspase-3) | cells with active p53 (p53) | reduction in the esterase activity of CA [4] [%]
O=S(=O)(NC(=S)[S][Au][PH](c1ccccc1)(c1ccccc1)c1ccccc1)c1ccccc1 [Complex 1, [Au(S2CNHSO2C6H5)(PPh3)]] | 1920 ± 130 | 1380 ± 210 | 1140 ± 250 | 1140 ± 250 | capable of inducing apoptosis | induced similar mitochondrial depolarization | increased the percentage of cells with active caspase-3 | significant increase in cells with active p53 | 48
[Au(S2CNHSO2-p-Me-C6H4)(IMePropargyl)] [Complex 8] | > 50000 | 37400 ± 7480 | 7220 ± 380 | 7220 ± 380 | capable of inducing apoptosis | induced similar mitochondrial depolarization | increased the percentage of cells with active caspase-3 | significant increase in cells with active p53 | 31

Reference: PMC9221018, “Sulfonamide-Derived Dithiocarbamate Gold(I) Complexes Induce the Apoptosis of Colon Cancer Cells by the Activation of Caspase 3 and Redox Imbalance” (Biomedicines, 2022)
